Where two headings read alike, the source gives them in different places. A value given as a limit tells only on which side of the number the result lay.

The conditions of test [1]: literature statement (A. L. Morrison et al., J.Chem. Soc., 1467, 1950); cited from earlier work.
A further test concerns Male CF1 mice. Kind of test: Mouse antiphenylquinone writhing (PQW) test. Format: in vivo. The note with it: Table 3; for ED50: Mus musculus, 0.5 h, phenylquinone 1.25 mg/kg i.p., observation beginning 30 min after injection of test compound; for Mouse PQW remark: remark beside S.C and P.O values. As to the method:
The anti-pheylquinone writhing (PQW) test modified from the methods of Siegmund et al. (Proc. Soc. Exp. Biol. Med. 95: 729-731, 1957) and Blumberg et al. (Proc. Exp. Biol. Med. 118: 763-767, 1965) was used to assess analgesia in mice. Male CF1 mice (Charles River Breeding Laboratories, Wilmington, MA), fasted for 16-22 h and weighing 18-23 g, were injected with randomized and coded doses of test compounds, then challenged with 1.25 mg/kg i.p. phenyl-p-benzoquinone (phenylquinone) 5 min prior to the specified observation time. The phenylquinone solution (0.1 mg/ml in 5% aqueous ethanol) was prepared daily and stored in foil-wrapped amber bottles to limit degradation. Mice were observed 10 min for the presence or absence of the characteristic abdominal constriction and stretching response beginning 30 min after injection of the test compound. Analgetic activity was calculated as the percentage of mice failing to respond to the phenylquinone challenge dose. […] Median effective doses (ED50's) and 95% confidence limits were determined numerically by the methods of Thompson (Bacteriological Rev. 11: 115-145, 1947), and Litchfield and Wilcoxon (J. Pharmacol. Exp. Ther. 96: 99.113, 1949).
The data shown in Table show the PQW ED₅₀ values for the compounds of the aforesaid examples.
Table 4 illustrates that the 3° carbinols within the scope of U.S. 4,485,109 have utility as analgesic agents.

A further test concerns Male mice. Kind of test: Anorexia test from CNS screen (consumption of sweetened condensed milk spots). Format: in vivo. The conditions noted are these: Mus musculus; fasted male mice, oral doses, 0.5 h after administration, 10 min access to milk; read-out: ED₅₀ for Anorexia. As to the method: Male mice weighing 18-25 grams and fasted over-night for 17-21 h were used in these studies. At 0.5 h after administration of graded oral doses of compound prepared in aqueous Methocel® (methylcellulose, viscosity 100 mPa·s (CPS), grade A15C, Dow Chemical Co.) and dosed at 0.1 ml per 10 grams of body weight, each mouse was transferred to an individual, clear, Lucite® compartment (13.3 cm x 12.7 cm x 12.7 cm) with a wire mesh floor having 0.64 cm x 0.64 cm openings. Five compartments were linearly arranged in each cage unit. Inside each compartment was a section of a black Lucite® bar (13 cm x 1.2 cm x 1.2 cm), in the top of which were ten spot depressions (0.8 cm diameter), each containing 0.05 ml of 50% sweetened condensed milk. Ten (10) minutes later the mice were removed from to the compartments and the number of milk spots consumed by each mouse was counted. Fractions of spots consumed were also estimated and counted. Data were expressed as % decrease from control. ED₅₀ values were estimated using linear regression analysis.

A further test deals with Male CF mice. The test is described as follows: Antagonism of tetrabenazine-induced depression (exploratory loss and ptosis) in mice. Format: in vivo. The conditions noted are these: Mus musculus, po, 1 h, orally, one hour post-drug, tetrabenazine methane sulfonate 52 mg/kg i.p. The source says:
The prevention of tetrabenazine-induced sedation and depression in mice is a standard procedure used to detect and compare antidepressant compounds. The activity of antidepressant compounds in this procedure correlates well with human efficacy. (Barnett, et al., Int. J. Neuropharmac. 8: 73-79, 1969, and Vernier, et al., "The Pharmacodynamics of Amitriptyline" in Psychsomatic Medicine (Nodine & Moyer, editors) pp. 683-690, 1962).
Male CF mice (Charles River Breeding Laboratories, Wilmingon, MA), fasted for 16-22 hours and weighing 18-25 g, were injected with randomized and coded does of test compounds, then challenged with 52 mg/kg i.p. tetrabenazine methane sulfonate 30 minutes prior to the specified observation time. The tetrabenazine methane sulfonate solution (5.2 mg/ml in distilled water) was prepared daily and stored in foil-wrapped amber bottles to limit degradation. […] Exploratory loss was defined as failing to move to the perimeter of a 12.7 cm (5 inch) (12.7 cm) circle within 15 seconds of being placed at the center of the circle. Ptosis was defined as both eyelids closed 50% or more compared to normal. Antidepressant activity was calculated as the percentage of mice failing to respond to the tetrabenazine challenge dose. […] Median effective does (ED₅₀'s) were estimated using the Moving Average method of Thompson (Bacteriological Rev. 11: 115-145, 1947).
The data in Table 5 show ED₅₀ values for the compounds of the aforesaid examples.

The mark [2] stands for this setting: po, p.o., read-out: Mouse PQW ED₅₀ (Mg/Kg) P.O.
Where [3] appears, read: sc, s.c., read-out: Mouse PQW ED₅₀ (Mg/Kg) S.C.
The mark [4] stands for this setting: read-out: Oral ED₅₀ (mg/kg) for Prevention of Ptosis.

Turning to `CCC(O)C1(c2ccccc2)CCN(C)CC1` (stereo not shown) [4-phenyl-1-methyl-4-(1-hydroxypropyl)piperidine, reference compound], the “analgesic activity compared with the parent ketones” value in test [1] was “much less active as analgesics than the parent ketones”.

`CC(O)C1(c2cccc(Cl)c2)CCN(C)CC1` (stereo not drawn) [Example 1, 4-(3'-Chlorophenyl)-α,1-dimethyl-4-piperidinemethanol]: the ED50 in the test with Male CF1 mice (setting [2]) is 19 mg/kg; in the test on Male CF1 mice (setting [3]), 8.1 mg/kg; in the test on Male mice, 20 mg/kg; in the test with Male CF mice (read-out: Oral ED₅₀ (mg/kg) for Prevention of Exploratory Loss), 0.92 mg/kg; with Male CF mice (setting [4]), 0.74 mg/kg.

In the case of `CC(O)C1(c2ccccc2)CCN(C)CC1` (stereo not shown) [Example 3, 4-phenyl-1-methyl-4-(1-hydroxyethyl)piperidine], in test [1], the “analgesic activity compared with the parent ketones” value is reported as “much less active as analgesics than the parent ketones”. Further, the ED50 in the test on Male CF1 mice (setting [2]) turned out to be 38 mg/kg; in the test with Male CF1 mice (setting [3]), 19 mg/kg.

`Cc1ccccc1C1(C(C)O)CCN(C)CC1` (stereo not shown) [Example 12]: the ED50 was over 81 mg/kg with Male CF1 mice (setting [2]), over 81 mg/kg in the test with Male CF1 mice (setting [3]) and 1.03 mg/kg with Male CF mice (setting [4]). In the test with Male CF1 mice, the “Mouse PQW remark” value is recorded as “Inactive”.

With `CC(O)C1(c2ccc(C(F)(F)F)cc2)CCN(C)CC1` (stereo not drawn) [Example 16, 4(4'-Trifluoromethylphenyl)-α-1-dimethylpiperidinemethanol], the ED50 with Male CF1 mice (setting [2]) is over 81 mg/kg; in the test with Male CF1 mice (setting [3]), over 81 mg/kg; in the test on Male mice, 22 mg/kg; with Male CF mice (setting [4]), 28 mg/kg. In addition, the “Mouse PQW remark” value in the test with Male CF1 mice was “Inactive”.

`COc1ccc(C2(C(C)O)CCN(C)CC2)cc1` (stereo not shown) [Example 17]: the ED50 in the test on Male CF1 mice (setting [2]) is over 81 mg/kg; in the test on Male CF1 mice (setting [3]), over 81 mg/kg; with Male CF mice (setting [4]), 1.3 mg/kg. In the test with Male CF1 mice, the “Mouse PQW remark” value is reported as “Inactive”.

These data come from EP0337167B1, “4-Aryl-4-piperidine (or pyrrolidine or hexahydroazepine) carbinols and heterocyclic analogs thereof” (THE DU PONT MERCK PHARMACEUTICAL COMPANY, priority 1988, dated 1989).
